Source: US5990137A, “Method of inhibiting NADPH oxidase” (Idun Pharmaceuticals, Inc., priority 1998, dated 1999)

How the values were obtained:
[1] = tested on: isolated neutrophils (opsonized zymosan-stimulated oxidative burst); test: Measurement of chemiluminescence of isolated neutrophils (neutrophil burst, Lucigenin); type: cell-based; conditions: for IC50 / Neutrophil Burst IC50 (Lucigenin): 14 min, opsonized zymosan, lucigenin, 37° C.
Procedure: Whole blood (150 ml) was anticoagulated with Acid Citrate Dextrose (ACD) using a ratio of 1:5 ACD to blood.
All steps are to be performed using polypropylene plastic ware.
a. Whole blood (60 ml) was added to each of three 100 ml polypropylene graduated cylinders containing 30 ml of […]. The cylinders were covered securely with Parafilm. The blood was allowed to sediment for approximately 1 hour at room temperature.
b. The turbid straw-colored layer was harvested from the top of the cylinders into 50 ml conical polypropylene tubes. The white blood cells were pelleted by centrifugation at 240×g (Sorvall at 1200 rpm) for 12 min. at 4° C. with the brake on low.
c. The supernatant was removed by aspiration and the pooled pellet resuspended in 4-50 ml cold PBS (w/o Ca, Mg). It was then centrifuged at 240×g (Sorvall at 1200 rpm) for 6 min. at 4° C. with the brake on high.
a. The supernatant was aspirated and the pellet resuspended in 12 ml of cold cell culture-grade water. The pellet was titrated gently with a pipet for exactly 30 seconds then 4 ml of cold 0.6 M KCl was added. It was then QSed to 50 ml with cold PBS (w/o Ca, Mg) and centrifuged at 300×g (Sorvall TY 6000D at 1400 rpm) for 6 min. at 4° C. with the brake on high.
b. Step 2.a. was repeated once more.
a. The supernatant was aspirated and the cells were resuspended in 2.5 ml cold PBS (w/o Ca, Mg). The cell suspension was carefully layered over 3 ml Ficoll-Hypaque in a 15 ml polypropylene conical tube. It was then centrifuged at 400×g (Sorvall at 1900 rpm) for 30 min. at 4° C. with the brake on low.
b. Aspiration occurred down to the neutrophil pellet. The pellet was resuspended fin cold PBS (w/o Ca, Mg) and transferred to a 50 ml conical tube. It was then QSed to 50 ml with cold PBS (w/o Ca, Mg) and centrifuged at 300×g (Sorvall at 1400 rpm) for 6 min. at 4° C. with the brake on high.
d. The supernatant was aspirated and the pellet resuspended in 50 ml cold PBS (w/o Ca, Mg) and centrifuged at 300×g (Sorvall at 1400 rpm) for 6 min. with the brake on high.
e. The supernatant was aspirated and the neutrophil pellet resuspended in 4.0 ml cold PBS (w/o Ca, Mg). It was kept on ice. Trypan blue (10 μl) was diluted (1:40) and the cells were counted using a hemacytometer. The cell number and viability by Trypan […] exclusion were determined and the results recorded. The cells were diluted to 5.0×10^6 cells/ml with cold PBS-G (with Ca, Mg) prior to plating for the assay.
2. […] The suspension was centrifuged and the particles resuspended in 7 ml of PBS-G (with Ca, Mg)(18 mg/ml). It was stored on ice until used (briefly vortexed prior to pipetting).
4. PBS-G (10 μl) (with Ca, Mg) was added to the wells in a white 96 well plate.
6. The compound dilutions (10 μl) were added to the appropriate wells.
7. The cell prep was diluted to 5.0×10^6 cells/ml with PBS-G (with Ca, Mg) in a separate multipipette trough.
8. The neutrophil suspension (20 μl) was added to the appropriate wells.
9. The plate was incubated at 37° C. for three minutes.
10. Zymosan (10 μl of 18 mg/ml) was added to the appropriate wells.
11. The plate was read on the luminometer (Labsystems Luminoskan, Needham Heights, Mass.) for 14 min. at 37° C. on the kinetic mode and the results recorded using the software DeltaSoft.
12. The plate data was exported into Excel to determine percent of control and derive the means and standard deviations for the data. The IC50 was determined graphically from the data and plotted using SigmaPlot. For cases where one concentration (50 μM) was tested, percent inhibition was compared to that seen with 50 μM apocynin.
13. The results are set forth below in Table 1 as "Neutrophil Burst IC50 (Lucigenin)". The results for 50 μM inhibition in the single assay are reported as "Neutrophil Burst Screen Value (% @ 50 μM)".

Jurkat cells = test: Cytotoxicity assay employing Jurkat cells (MTT); type: cell-based; conditions: Jurkat clone E6-1, MTT, 37° C. overnight
Procedure: This Assay was performed as set forth in Hansen et al., Journal of Immunological Methods, 119:203-210 (19930; Mosmann, Journal of Immunological Methods, 65:55-63 (1983); and Slater et al., Biochem. Ciophys. Acta, 77:383 (1963); except as noted below.
Compounds from the following Examples were tested for cytotoxicity using MTT (i.e., 3-[4,5-Dimethylthiazol-2-yl]-2,5-diphenyltetrazolium bromide; Thiazolyl Blue (Sigma, St. Louis, Mo.)).
MTT was dissolved in basal culture media at a concentration of 5 mg/ml. If necessary, it was briefly warmed at 37° C. to fully dissolve, passed through a sterile filter, and aliquoted and stored at -20° C. until use.
The Extraction Buffer used was a solution composed of 20% SDS, 2.5% Acetic Acid (80% 6 stock solution), 2.5% 1N Hcl, 50% Dimethylformamide/50% dissolved in distilled water, SDS was dissolved into buffer components with gentle heating and stirring and the resultant solution was filtered and stored until use.
The MTT solution was added in an amount equal to 10% of the culture volume to each well in a 96-well plate containing 100,000 Jurkat cells/well.
The wells were then incubated for 0.5 to 2 hours in standard culture conditions. A volume of extraction buffer equal to the culture volume was added. The 96-well plate was then sealed. The formazan crystals were allowed to extract at 37° C. for four hours. The plate was read on a spectrophotometer [Spectramax 250, Molecular Devices, Sunnyvale, Calif.] at an absorbance wavelength of 560 nm. (The background absorbance measured at 650 nm was subtracted from the value measured at 560 nm.)
The Jurkat cells (Jurkat clone E6-1) were grown using standard conditions supplied by ATCC (American Type Culture Collection--Rockville, Md.).
The compounds diluted in medium (RPMI 1640 plus 10% fetal bovine serum) stock solution of 100 μM, then this stock solution was further diluted 3-fold before testing in the instant assay.
2-Hydroxy-3-methoxy-E-nitrostyrene tested at 100 μM as death control cells, incubated under the above conditions at 37° C. overnight.
The Extraction Buffer (100 μl) was added to each well and the resultant suspension was incubated 4 hours at 37° C.
The results from this procedure are set forth above in Table 1 in the column marked "Cytotox (MTT/Jurkat)". […] Toxicity was rated "3" if dead cells and >50% reduction in MTT absorbance at 1 μM test compound.

Xanthine oxidase = molecular target: T1, Xanthine oxidase (Bos taurus, UniProt P80457); test: Xanthine oxidase assay (superoxide by hypoxanthine/xanthine oxidase, Lucigenin); type: biochemical; conditions: hypoxanthine 150 μM, buttermilk xanthine oxidase, 37° C.; for IC50: read-out: Xanthine Oxidase Inhibition IC50 (Integral)
T1 construct: purchased Sigma x-1875; host or cells: buttermilk
T1 sequence (P80457 whole entry): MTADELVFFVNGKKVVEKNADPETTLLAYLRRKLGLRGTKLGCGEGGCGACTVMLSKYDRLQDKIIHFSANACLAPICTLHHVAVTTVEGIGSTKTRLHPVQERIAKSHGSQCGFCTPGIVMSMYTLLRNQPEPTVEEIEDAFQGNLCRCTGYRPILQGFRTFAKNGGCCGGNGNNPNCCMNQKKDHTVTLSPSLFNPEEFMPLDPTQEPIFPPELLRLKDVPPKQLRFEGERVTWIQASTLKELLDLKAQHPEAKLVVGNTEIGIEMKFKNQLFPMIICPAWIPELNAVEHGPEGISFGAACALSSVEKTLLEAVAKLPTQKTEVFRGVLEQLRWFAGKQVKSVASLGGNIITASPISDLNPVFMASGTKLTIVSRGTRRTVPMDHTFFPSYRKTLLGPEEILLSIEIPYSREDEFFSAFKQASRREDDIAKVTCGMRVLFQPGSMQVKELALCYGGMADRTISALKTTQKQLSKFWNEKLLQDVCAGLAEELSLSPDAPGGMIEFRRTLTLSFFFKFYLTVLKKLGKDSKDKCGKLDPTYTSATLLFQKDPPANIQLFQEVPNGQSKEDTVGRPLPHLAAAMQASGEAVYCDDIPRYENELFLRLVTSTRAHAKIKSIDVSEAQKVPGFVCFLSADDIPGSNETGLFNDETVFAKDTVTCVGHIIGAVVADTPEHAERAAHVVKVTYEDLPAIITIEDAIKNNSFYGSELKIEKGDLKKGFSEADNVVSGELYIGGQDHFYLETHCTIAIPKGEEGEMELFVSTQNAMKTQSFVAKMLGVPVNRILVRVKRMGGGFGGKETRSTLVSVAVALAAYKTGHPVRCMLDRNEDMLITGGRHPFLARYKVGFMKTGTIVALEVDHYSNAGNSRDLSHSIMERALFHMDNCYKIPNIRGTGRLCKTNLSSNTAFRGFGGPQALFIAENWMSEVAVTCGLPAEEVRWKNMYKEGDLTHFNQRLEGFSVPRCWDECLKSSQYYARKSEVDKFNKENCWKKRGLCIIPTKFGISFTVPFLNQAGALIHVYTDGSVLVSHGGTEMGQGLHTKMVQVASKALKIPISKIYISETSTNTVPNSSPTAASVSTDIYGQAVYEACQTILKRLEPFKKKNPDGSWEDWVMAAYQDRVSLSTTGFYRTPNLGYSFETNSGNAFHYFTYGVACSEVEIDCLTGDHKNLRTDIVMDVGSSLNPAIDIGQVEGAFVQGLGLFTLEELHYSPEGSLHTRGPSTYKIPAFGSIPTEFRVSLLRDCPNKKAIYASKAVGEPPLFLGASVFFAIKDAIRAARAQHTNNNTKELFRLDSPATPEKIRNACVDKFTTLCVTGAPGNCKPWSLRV

Xanthine Oxidase Inhibition IC50 (Integral) (Xanthine oxidase)	Neutrophil Burst IC50 (Lucigenin) [1]	IC50 (Xanthine oxidase)	Compound	IC50 ([1]; Neutrophil)	Cytotox (MTT/Jurkat) (Jurkat cells)	also measured
	No Effect		CCOc1cc(/C=N/N=C/c2ccc(O)c(OCC)c2)ccc1O [Example 8, Bis[3-Ethoxy-4-Hydroxybenzaldehyde]trans,trans-Azine]			
			COc1cc(/C=N/N=C/c2cc(Br)c(O)c(OC)c2)cc(Br)c1O [Example 1, Bis[3-Bromo-4-Hydroxy-5-Methoxybenzaldehyde]trans,trans-Azine]	38 µM	0	
No Effect	No Effect		COc1ccc(/C=N/N=C/c2ccc(OC)cc2O)c(O)c1 [Example 3, Bis[2-Hydroxy-4-Methoxybenzaldehyde]trans,trans-Azine]			
No Effect	No Effect		C(=N\N=C\c1ccncc1)/c1ccncc1 [Example 15, Bis[Pyridine-4-Carboxaldehyde]trans,trans-Azine]			
No Effect	No Effect		CC(C)(C)c1cc(/C=N/N=C/c2cc(C(C)(C)C)c(O)c(C(C)(C)C)c2)cc(C(C)(C)C)c1O [Example 14, Bis[3,5-(tert-Butyl)-4-Hydroxybenzaldehyde]trans,trans-Azine]			
		20 µM	COc1cc(/C(C)=N/N=C(\C)c2cc(OC)c(O)c(OC)c2)cc(OC)c1O [Example 9, Bis[3,5-Dimethoxy-4-Hydroxyacetophenone]trans,trans-Azine]	8.7 µM		
		2.1 µM	COc1cc(C=Nc2nncs2)cc(OC)c1O [Example 21, R-N'-(3,5-Dimethoxy-4-Hydroxybenzylidene)-5-Amino-1,3,4-Thiadiazole]	8 µM		
No Effect			COc1cccc(/C=N/N=C/c2cccc(OC)c2)c1 [Example 11, Bis[3-Methoxybenzaldehyde]trans,trans-Azine]			
No Effect	No Effect		COc1cccc(/C=N/N=C/c2cccc(OC)c2OC)c1OC [Example 2, Bis[2,3-Dimethoxybenzaldehyde]trans,trans-Azine]			
			COc1cc(C=Nc2nccs2)ccc1O [B, 2-N'-(3-methoxy-4-hydroxybenzylidene)-2-amino-1,3-thiazole]			inhibition at 50 µM ([1]; Neutrophil, percent inhibition at 50 μM, single concentration, read-out: Neutrophil Burst Screen Value (% @ 50 μM)): 49.4%
		14 µM	COc1cc(C=Nc2ccccc2)cc(OC)c1O [Example 23, N-(3,5-Dimethoxy-4-Hydroxybenzylidene)Aniline]	5 µM		
		16.3 µM	COc1cc(C=Nc2nncs2)ccc1O [Example 22, 5-N'-(3-Methoxy-4-Hydroxybenzylidene)-5-Amino-1,3,4-Thiadiazole]	15.5 µM		
		28 µM	COc1cc(C=Nc2ccc(F)cc2)cc(OC)c1O [Example 19, N-(3,5-Dimethoxy-4-Hydroxybenzylidene)-p-Fluoroaniline]	13.2 µM		
		34 µM	COc1cc(C=Nc2ccc(Br)cc2)cc(OC)c1O [Example 20, N-(3,5-Dimethoxy-4-Hydroxybenzylidene)-p-Bromoaniline]	9.9 µM		
No Effect	No Effect		COc1ccc(/C=N/N=C/c2ccc(OC)c(O)c2)cc1O [Example 4, Bis[3-Hydroxy-4-Methoxybenzaldehyde]trans,trans-Azine]			
No Effect	No Effect		COc1ccc(/C=N/N=C/c2ccc(OC)c(OC)c2)cc1OC [Example 5, Bis[3,4-Dimethoxybenzaldehyde]trans,trans-Azine]			

Compound	Xanthine Oxidase Inhibition IC50 (Integral) (Xanthine oxidase)	Neutrophil Burst IC50 (Lucigenin) [1]	IC50 (Xanthine oxidase)	IC50 ([1]; Neutrophil)	Cytotox (MTT/Jurkat) (Jurkat cells)	also measured
COc1cc(/C=N/N=C/c2ccccc2)ccc1O [Example 13, N-[4-Hydroxy-3-Methoxybenzaldehyde]-N'-[Benzaldehyde]trans,trans-Azine]	No Effect			44 µM	0	
COc1cc(/C=N/N=C/c2ccc(O)cc2)ccc1O [Example 10, N-[4-Hydroxy-3-Methoxybenzaldehyde]-N'-[4-Hydroxybenzaldehyde]trans,trans-Azine]	No Effect			8.5 µM	0	
Oc1ccc(/C=N/N=C/c2ccc(O)cc2)cc1 [Example 6, Bis[4-Hydroxybenzaldehyde]trans,trans-Azine]	No Effect			13.5 µM	0	
COc1cc(/C=N/N=C/c2cc(OC)c(O)c(OC)c2)cc(OC)c1O [D, Bis[4-hydroxy-3,5-dimethoxybenzaldehyde]-trans,trans-azine]			70 µM		1 (dead cells and >50% reduction in MTT absorbance were observed at 100 μM of the test compound)	
COc1ccc(N=Cc2cc(C(C)(C)C)c(O)c(C(C)(C)C)c2)cc1 [Example 16, N-(3,5-di(tert-Butyl)-4-Hydroxybenzylidene)-p-Methoxyaniline]	No Effect				0	
COc1ccc(N=Cc2cc(OC)c(O)c(OC)c2)cc1 [Example 18, N-(3,5-Dimethoxy-4-Hydroxybenzylidene)-p-Methoxyaniline]			32 µM	5 µM	0	
Oc1ccc(/C=N/N=C/c2ccc(O)c(O)c2)cc1O [Example 12, Bis[3,4 - Dihydroxybenzaldehyde]trans,trans-Azine]			1.1 µM	7.3 µM	1 (dead cells and >50% reduction in MTT absorbance were observed at 100 μM of the test compound)	
